Measured values: patent US20170050957A1, “4-AMINO-6-(HETEROCYCLIC)PICOLINATES AND 6-AMINO-2-(HETEROCYCLIC)PYRIMIDINE-4-CARBOXYLATES AND THEIR USE AS HERBICIDES” (Dow AgroSciences LLC, priority 2013, published 2017)
Read-outs that look alike come from different tables or passages of the source.

Tests used:
[1] = system: Key Broadleaf Weed and Crop Species; test: Post-emergent Test II herbicidal activity (Table 15); type: in vivo; conditions: post-emergence, 336 h, 14 d; for pest or weed control at 35 g/ha: 35 g ai/ha; for pest or weed control at 70 g/ha: 70 g ai/ha; for pest or weed control at 140 g/ha: 140 g ai/ha
Procedure, shortened: (§1)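 Herbicidal effect scored as percent visual injury, 14 d after post-emergent application. Spray solutions contained acetone, DMSO, isopropyl alcohol, crop oil concentrate and surfactant, applied at 187 L/ha to young plants (1-2 true leaves).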

[2] = system: Key Grass and Sedge Weeds as well as Grass Crops; test: Post-emergent Test II herbicidal activity (Table 16); type: in vivo; conditions: post-emergence, 336 h, 14 d; for pest or weed control at 35 g/ha: 35 g ai/ha; for pest or weed control at 70 g/ha: 70 g ai/ha; for pest or weed control at 140 g/ha: 140 g ai/ha
Procedure, shortened: as §1

[3] = Abutilon theophrasti, velvetleaf (Abutilon theophrasti), read-out: Visual Growth Reduction (%) 14 Days After Application, ABUTH
[4] = Amaranthus retroflexus, redroot pigweed (Amaranthus retroflexus), read-out: Visual Growth Reduction (%) 14 Days After Application, AMARE
[5] = Brassica napus, oilseed rape, canola (Brassica napus), read-out: Visual Growth Reduction (%) 14 Days After Application, BRSNN
[6] = Chenopodium album, lambsquarters (Chenopodium album), read-out: Visual Growth Reduction (%) 14 Days After Application, CHEAL
[7] = Euphorbia heterophylla, wild poinsettia (Euphorbia heterophylla), read-out: Visual Growth Reduction (%) 14 Days After Application, EPHHL
[8] = Helianthus annuus, sunflower (Helianthus annuus), read-out: Visual Growth Reduction (%) 14 Days After Application, HELAN
[9] = Cyperus esculentus, yellow nutsedge (Cyperus esculentus), read-out: Visual Growth Reduction (%) 14 Days After Application, CYPES
[10] = Echinochloa crus-galli, barnyardgrass (Echinochloa crus-galli), read-out: Visual Growth Reduction (%) 14 Days After Application, ECHCG
[11] = Oryza sativa, rice (Oryza sativa), read-out: Visual Growth Reduction (%) 14 Days After Application, ORYSA
[12] = Setaria faberi, giant foxtail (Setaria faberi), read-out: Visual Growth Reduction (%) 14 Days After Application, SETFA
[13] = Triticum aestivum, wheat, spring (Triticum aestivum), read-out: Visual Growth Reduction (%) 14 Days After Application, TRZAS
[14] = Zea mays, maize, corn (Zea mays), read-out: Visual Growth Reduction (%) 14 Days After Application, ZEAMX

COC(=O)c1nc(-c2cc3occc3cc2F)cc(N)c1Cl [Compound 2.12]
30 to 44%: pest or weed control at 35 g/ha [1, 8] | pest or weed control at 70 g/ha [2, 14]
95 to 100%: pest or weed control at 70 g/ha [1, 3] | pest or weed control at 140 g/ha [1, 3] | pest or weed control at 35 g/ha [1, 4] | pest or weed control at 70 g/ha [1, 4] | pest or weed control at 140 g/ha [1, 4] | pest or weed control at 140 g/ha [1, 5] | pest or weed control at 35 g/ha [1, 6] | pest or weed control at 70 g/ha [1, 6] | pest or weed control at 140 g/ha [1, 6] | pest or weed control at 35 g/ha [1, 7] | pest or weed control at 70 g/ha [1, 7] | pest or weed control at 140 g/ha [1, 7] | pest or weed control at 35 g/ha [2, 10] | pest or weed control at 70 g/ha [2, 10] | pest or weed control at 140 g/ha [2, 10]
0 to 29%: pest or weed control at 35 g/ha [2, 9] | pest or weed control at 70 g/ha [2, 9] | pest or weed control at 140 g/ha [2, 9] | pest or weed control at 35 g/ha [2, 11] | pest or weed control at 70 g/ha [2, 11] | pest or weed control at 140 g/ha [2, 11] | pest or weed control at 35 g/ha [2, 13] | pest or weed control at 70 g/ha [2, 13] | pest or weed control at 140 g/ha [2, 13] | pest or weed control at 35 g/ha [2, 14]
45 to 59%: pest or weed control at 35 g/ha [2, 12]
85 to 94%: pest or weed control at 35 g/ha [1, 3] | pest or weed control at 70 g/ha [1, 5]
75 to 84%: pest or weed control at 35 g/ha [1, 5]
130 °C: melting point
60 to 74%: pest or weed control at 70 g/ha [1, 8] | pest or weed control at 140 g/ha [1, 8] | pest or weed control at 70 g/ha [2, 12] | pest or weed control at 140 g/ha [2, 12] | pest or weed control at 140 g/ha [2, 14]

COC(=O)c1nc(-c2ccc3sccc3c2)c(Cl)c(N)c1Cl [Compound 3.01, Methyl 4-amino-6-(benzo[b]thiophenyl-5-yl)-3,5-dichloropicolinate]
50 to 56 °C: melting point
75 to 84%: pest or weed control at 140 g/ha [1, 3] | pest or weed control at 35 g/ha [1, 8] | pest or weed control at 70 g/ha [1, 8]
95 to 100%: pest or weed control at 70 g/ha [1, 4] | pest or weed control at 140 g/ha [1, 4] | pest or weed control at 35 g/ha [1, 6] | pest or weed control at 70 g/ha [1, 6] | pest or weed control at 140 g/ha [1, 6]
60 to 74%: pest or weed control at 35 g/ha [1, 3] | pest or weed control at 70 g/ha [1, 3] | pest or weed control at 140 g/ha [2, 14]
0 to 29%: pest or weed control at 35 g/ha [1, 5] | pest or weed control at 70 g/ha [1, 5] | pest or weed control at 140 g/ha [1, 5] | pest or weed control at 35 g/ha [1, 7] | pest or weed control at 70 g/ha [1, 7] | pest or weed control at 140 g/ha [1, 7] | pest or weed control at 35 g/ha [2, 9] | pest or weed control at 70 g/ha [2, 9] | pest or weed control at 140 g/ha [2, 9] | pest or weed control at 35 g/ha [2, 10] | pest or weed control at 70 g/ha [2, 10] | pest or weed control at 140 g/ha [2, 10] | pest or weed control at 35 g/ha [2, 11] | pest or weed control at 70 g/ha [2, 11] | pest or weed control at 140 g/ha [2, 11] | pest or weed control at 35 g/ha [2, 12] | pest or weed control at 70 g/ha [2, 12] | pest or weed control at 140 g/ha [2, 12] | pest or weed control at 35 g/ha [2, 13] | pest or weed control at 70 g/ha [2, 13] | pest or weed control at 140 g/ha [2, 13] | pest or weed control at 35 g/ha [2, 14]
45 to 59%: pest or weed control at 70 g/ha [2, 14]
85 to 94%: pest or weed control at 35 g/ha [1, 4] | pest or weed control at 140 g/ha [1, 8]
